Measurements reported in ChEMBL document CHEMBL3046544, “Inhibitory Activity of N-Substituted-2-piperidones with a 1, 4-Benzodioxan Ring on Germination of Barnyardgrass” (J Pestic Sci, 2001).

How the values were obtained:
Echinochloa esculenta [1] = test: Herbicidal activity against Echinochloa esculenta assessed as inhibition of seed germination at 0.1 nM after 5 days relative to control; assay type: functional; conditions: 120 h
Echinochloa esculenta [2] = test: Herbicidal activity against Echinochloa esculenta assessed as inhibition of seed germination at 1 nM after 5 days relative to control; assay type: functional; conditions: 120 h
Echinochloa esculenta [3] = test: Herbicidal activity against Echinochloa esculenta assessed as inhibition of seed germination at 10 nM after 5 days relative to control; assay type: functional; conditions: 120 h
Echinochloa esculenta [4] = test: Herbicidal activity against Echinochloa esculenta assessed as inhibition of seed germination at 100 nM after 5 days relative to control; assay type: functional; conditions: 120 h
Echinochloa esculenta [5] = test: Herbicidal activity against Echinochloa esculenta assessed as inhibition of seed germination at 1000 nM after 5 days relative to control; assay type: functional; conditions: 120 h
Oryza sativa [6] = test: Herbicidal activity against Oryza sativa (rice) assessed as inhibition of seed germination after 7 days relative to control; assay type: functional, organism-based; conditions: 168 h
Echinochloa esculenta [7] = test: Herbicidal activity against Echinochloa esculenta assessed as inhibition of seed germination after 5 days relative to control; assay type: functional, organism-based; conditions: 120 h
Oryza sativa [8] = test: Herbicidal activity against Oryza sativa (rice) assessed as inhibition of seed germination at > 90 nM after 7 days relative to control; assay type: functional, organism-based; conditions: 168 h

Row | Structure (SMILES) | inhibition at 0.0001 µM (Echinochloa esculenta [1]) | inhibition at 0.001 µM (Echinochloa esculenta [2]) | inhibition at 0.01 µM (Echinochloa esculenta [3]) | inhibition at 0.1 µM (Echinochloa esculenta [4]) | inhibition at 1 µM (Echinochloa esculenta [5]) | IC50 (Oryza sativa [6]) | IC50 (Echinochloa esculenta [7]) | IC50 (Oryza sativa [8])
1 | O=C1C(C(O)c2ccc3c(c2)OCCO3)CCCN1/C=C/c1ccccc1 (mixture of isomers) | < 49% | < 49% | 50% | > 90% | > 90% |  |  | 
2 | O=C1[C@H]([C@@H](O)c2ccc3c(c2)OCCO3)CCCN1Cc1ccccc1 (relative stereo) |  |  |  |  |  | > 1000 nM | > 1000 nM | 
3 | O=C1C(C(O)c2ccc3c(c2)OCCO3)CCCN1CC=C(c1ccccc1)c1ccccc1 (mixture of isomers) | < 49% | < 49% | > 90% | > 90% | > 90% |  |  | 
4 | O=C1[C@@H]([C@@H](O)c2ccc3c(c2)OCCO3)CCCN1C/C=C/c1ccccc1 (relative stereo) |  |  |  |  |  | 8.1 nM | 0.8 nM | 
5 | O=C1[C@H]([C@@H](O)c2ccc3c(c2)OCCO3)CCCN1C/C=C/c1ccccc1 (relative stereo) |  |  |  |  |  | > 1000 nM | > 1000 nM | 
6 | O=C1[C@@H]([C@@H](O)c2ccc3c(c2)OCCO3)CCCN1Cc1ccccc1 (relative stereo) |  |  |  |  |  | > 90 nM | 4.5 nM | 30 nM
7 | O=C1C(C(O)c2ccc3c(c2)OCCO3)CCCN1c1ccccc1 (mixture of isomers) | < 49% | < 49% | < 49% | < 49% | < 49% |  |  | 
8 | O=C1C(C(O)c2ccc3c(c2)OCCO3)CCCN1Cc1ccccc1 (mixture of isomers) |  | < 49% | > 90% | > 90% | > 90% | > 90 nM | 8.8 nM | 10 nM
9 | O=C1C(C(O)c2ccc(O)cc2)CCCN1Cc1ccccc1 (mixture of isomers) |  | < 49% | < 49% | < 49% | 50% |  |  | 
10 | O=C1C(C(O)c2ccc([N+](=O)[O-])cc2)CCCN1Cc1ccccc1 (mixture of isomers) |  | < 49% | < 49% | < 49% | 50% |  |  | 
11 | O=C1C(C(O)c2cccc([N+](=O)[O-])c2)CCCN1Cc1ccccc1 (mixture of isomers) |  | < 49% | < 49% | < 49% | 50% |  |  | 
12 | O=C1C(C(O)c2cccc(Cl)c2)CCCN1Cc1ccccc1 (mixture of isomers) |  | < 49% | < 49% | < 49% | > 90% |  |  | 
13 | Cc1cccc(C(O)C2CCCN(Cc3ccccc3)C2=O)c1 (mixture of isomers) |  | < 49% | < 49% | < 49% | > 90% |  |  | 
14 | O=C1C(C(O)c2cccc(Oc3ccccc3)c2)CCCN1Cc1ccccc1 (mixture of isomers) |  | < 49% | < 49% | < 49% | 50% |  |  | 
15 | O=C1NCCCC1C(O)c1ccc2c(c1)OCCO2 (mixture of isomers) | < 49% | < 49% | < 49% | < 49% | > 90% |  |  | 
16 | O=C1C(C(O)c2ccc(O)c(O)c2)CCCN1Cc1ccccc1 (mixture of isomers) |  | < 49% | < 49% | < 49% | 50% |  |  | 
17 | O=C1C(C(O)c2ccc(Cl)c(Cl)c2)CCCN1Cc1ccccc1 (mixture of isomers) |  | < 49% | < 49% | < 49% | 50% |  |  | 
18 | O=C1C(C(O)c2ccc3c(c2)OCCO3)Cc2ccccc2N1C/C=C/c1ccccc1 (mixture of isomers) |  | < 49% | < 49% | < 49% | < 49% |  |  | 
19 | O=C1C(C(O)c2cnc3ccccc3c2)CCCN1Cc1ccccc1 (mixture of isomers) |  | < 49% | < 49% | < 49% | < 49% |  |  | 
20 | COc1cccc(C(O)C2CCCN(Cc3ccccc3)C2=O)c1 (mixture of isomers) |  | < 49% | < 49% | < 49% | < 49% |  |  | 
21 | C=CCN1CCCC(C(O)c2ccc3c(c2)OCCO3)C1=O (mixture of isomers) | < 49% | < 49% | < 49% | < 49% | 50% |  |  | 

Row | Structure (SMILES) | inhibition at 0.0001 µM (Echinochloa esculenta [1]) | inhibition at 0.001 µM (Echinochloa esculenta [2]) | inhibition at 0.01 µM (Echinochloa esculenta [3]) | inhibition at 0.1 µM (Echinochloa esculenta [4]) | inhibition at 1 µM (Echinochloa esculenta [5]) | IC50 (Oryza sativa [6]) | IC50 (Echinochloa esculenta [7]) | IC50 (Oryza sativa [8])
22 | O=C1C(C(O)c2ccccn2)CCCN1Cc1ccccc1 (mixture of isomers) |  | < 49% | < 49% | < 49% | < 49% |  |  | 
23 | O=C1C(C(O)C2CCCCC2)CCCN1Cc1ccccc1 (mixture of isomers) |  | < 49% | < 49% | < 49% | < 49% |  |  | 
24 | COc1ccccc1C(O)C1CCCN(Cc2ccccc2)C1=O (mixture of isomers) |  | < 49% | < 49% | < 49% | 50% |  |  | 
25 | O=C1C(C(O)c2ccc(Cl)cc2Cl)CCCN1Cc1ccccc1 (mixture of isomers) |  | < 49% | < 49% | < 49% | 50% |  |  | 
26 | O=C1C(C(O)c2ccc3c(c2)OCCO3)CCCN1C/C=C/c1ccccc1 (mixture of isomers) | < 49% | < 49% | > 90% | > 90% | > 90% | > 90 nM | 1.4 nM | 25 nM
27 | O=C1C(C(O)c2ccc3c(c2)OCC(COCc2ccccc2)O3)CCCN1Cc1ccccc1 (mixture of isomers) |  | < 49% | < 49% | 50% | > 90% |  |  | 
28 | O=C1C(C(O)c2ccccc2)CCCN1Cc1ccccc1 (mixture of isomers) |  | < 49% | < 49% | < 49% | > 90% |  |  | 
29 | O=C1C(C(O)c2cccc(O)c2)CCCN1Cc1ccccc1 (mixture of isomers) |  | < 49% | < 49% | < 49% | 50% |  |  | 
30 | Cc1ccccc1C(O)C1CCCN(Cc2ccccc2)C1=O (mixture of isomers) |  | < 49% | < 49% | < 49% | > 90% |  |  | 
31 | Cc1ccc(C(O)C2CCCN(Cc3ccccc3)C2=O)cc1 (mixture of isomers) |  | < 49% | < 49% | < 49% | > 90% |  |  | 
32 | O=C1C(C(O)c2ccc(Cl)cc2)CCCN1Cc1ccccc1 (mixture of isomers) |  | < 49% | < 49% | 50% | > 90% |  |  | 
33 | CCOCC1COc2cc(C(O)C3CCCN(Cc4ccccc4)C3=O)ccc2O1 (mixture of isomers) |  | < 49% | < 49% | 50% | 50% |  |  | 
34 | CC(C)C(O)C1CCCN(Cc2ccccc2)C1=O (mixture of isomers) |  | < 49% | < 49% | < 49% | < 49% |  |  | 
35 | COc1cc(C(O)C2CCCN(Cc3ccccc3)C2=O)cc2c1OCCO2 (mixture of isomers) |  | < 49% | < 49% | < 49% | 50% |  |  | 
36 | O=C1C(C(O)C/C=C/c2ccccc2)CCCN1Cc1ccccc1 (mixture of isomers) |  | < 49% | < 49% | 50% | 50% |  |  | 
37 | O=C1C(C(O)c2ccc3c(c2)OCCO3)CCCCN1C/C=C/c1ccccc1 (mixture of isomers) |  | < 49% | < 49% | < 49% | > 90% |  |  | 
38 | O=C1C(C(O)c2ccc(C(F)(F)F)cc2)CCCN1Cc1ccccc1 (mixture of isomers) |  | < 49% | < 49% | < 49% | 50% |  |  | 
39 | COc1c(C(O)C2CCCN(Cc3ccccc3)C2=O)ccc2c1OCCO2 (mixture of isomers) |  | < 49% | < 49% | < 49% | > 90% |  |  | 
40 | CC(C)CCC(O)C1CCCN(Cc2ccccc2)C1=O (mixture of isomers) |  | < 49% | < 49% | 50% | 50% |  |  | 
41 | O=C1C(C(O)c2ccc3c(c2)OCO3)CCCN1Cc1ccccc1 (mixture of isomers) |  | < 49% | < 49% | < 49% | < 49% |  |  | 
